Columns and labels:
Assay type in all cases: physicochemical
[1] = Storage at -15° C., precipitate formation
Method: A formulation containing 3.6 weight percent BAC-E in a mixture of 45 weight percent DVS resin in mesitylene is stored for more than five months at −15° C. […] A formulation containing 4.05 weight percent BAC-E in a mixture of 45 weight percent DVS resin in mesitylene is stored at −15° C. A precipitate forms in three days. A formulation containing 2.0 weight percent BAC-M in a mixture of 45 weight percent DVS resin in mesitylene is stored at −15° C. A precipitate forms in less than ten days.

[2] = Solubility of bis azides in mesitylene and in DVS resin/mesitylene mixture; details: for Solubility In Mesitylene: in mesitylene at 25° C.; for Solubility In Mixture: mixture of 45 weight percent DVS resin in mesitylene at 10° C., weight percent based on total weight of mixture
Method: The solubility of various bis azides are determined in mesitylene at 25° C. and in a mixture of 45 weight percent DVS resin in mesitylene at 10° C. The results are shown in Table I. BAC-M is 2,6-bis(4-azidobenzylidene)-4-methylcyclohexanone and differs from the bis azide of the invention by having a methyl substituent on the cyclohexanone ring instead of ethyl. BAC-P is 2,6-bis(4-azidobenzylidene)-4-n-propyl cyclohexanone and differs from the bis azide of the invention by having an n-propyl substituent on the cyclohexanone ring instead of ethyl. The weight percent in the mixture is calculated based on the total weight of mixture.

[3] = Speed of dissolution in DVS resin/mesitylene; details: shaken at room temperature
Method: BAC-E, up to four weight percent, is added to a mixture of 45 weight percent DVS resin in mesitylene and shaken at room temperature. The BAC-E dissolves in thirty minutes. BAC-M, at 2.0 weight percent is added to a mixture of 45 weight percent DVS resin in mesitylene and shaken at room temperature. The BAC-M requires more than eight hours of shaking to dissolve.

Row | Solubility In Mesitylene [2] | Solubility In Mixture [2] | time until a precipitate forms ([1]; 2.0 weight percent BAC-M in 45 weight percent DVS resin in mesitylene, stored at -15° C.) | time of shaking to dissolve ([3]; 2.0 weight percent in 45 weight percent DVS resin in mesitylene) | SMILES | precipitate formation on storage ([1]; 3.6 weight percent BAC-E in 45 weight percent DVS resin in mesitylene, stored more than five months at -15° C.) | time to dissolve ([3]; up to four weight percent in 45 weight percent DVS resin in mesitylene)
1 | 1.7 g/100 mL | 1.0 Wt % | less than ten | more than eight | CC1CC(=Cc2ccc(N=[N+]=[N-])cc2)C(=O)C(=Cc2ccc(N=[N+]=[N-])cc2)C1 (stereo not shown) [BAC-M, 2,6-bis(4-azidobenzylidene)-4-methylcyclohexanone] | – | –
2 | 3.5 g/100 mL | 1.7 Wt % | – | – | CCCC1CC(=Cc2ccc(N=[N+]=[N-])cc2)C(=O)C(=Cc2ccc(N=[N+]=[N-])cc2)C1 (stereo not shown) [BAC-P, 2,6-bis(4-azidobenzylidene)-4-n-propyl cyclohexanone] | – | –

Row | SMILES | Solubility In Mesitylene [2] | Solubility In Mixture [2] | time until a precipitate forms ([1]; 2.0 weight percent BAC-M in 45 weight percent DVS resin in mesitylene, stored at -15° C.) | time of shaking to dissolve ([3]; 2.0 weight percent in 45 weight percent DVS resin in mesitylene) | precipitate formation on storage ([1]; 3.6 weight percent BAC-E in 45 weight percent DVS resin in mesitylene, stored more than five months at -15° C.) | time to dissolve ([3]; up to four weight percent in 45 weight percent DVS resin in mesitylene)
3 | CCC1C/C(=C\c2ccc(N=[N+]=[N-])cc2)C(=O)/C(=C/c2ccc(N=[N+]=[N-])cc2)C1 (stereo not shown) [BAC-E, 2,6-bis(4-azidobenzylidene)-4-ethylcyclohexanone] | 14 g/100 mL | 10.4 Wt % | – | – | No precipitate forms | thirty

— patent US6727038B1, “Photodefineable compositions” (Dow Global Technologies Inc., priority 1995, dated 2004)
